Experimental data as given in the NIST ThermoML archive (doi:10.1021/acs.jced.5b00114).
Where “and” joins values, the source holds several entries; their conditions need not be identical. Equal values may be shown once.

Assay: mn = molality of the nth substance listed, in mol/kg
Details: 101 kPa, Liquid; for viscosity: Capillary tube (Ostwald / Ubbelohde) method; for mass density: Vibrating tube method

Cc1ncc(CO)c(CO)c1O.Cl [5-hydroxy-6-methyl-3,4-pyridinedimethanol hydrochloride] + O
Details | mass density, 293.15 K | mass density, 303.15 K [kg/m3] | mass density, 313.15 K | mass density, 323.15 K [kg/m3] | viscosity, 293.15 K [mPa·s] | viscosity, 303.15 K | viscosity, 313.15 K | viscosity, 323.15 K [mPa·s]
m1 = 0.0999 | 1004.23 kg/m3 | 1001.56 | 998.03 kg/m3 | 993.8 | 1.044 | 0.829 mPa·s | 0.678 mPa·s | 0.568
m1 = 0.1 | 1004.23 kg/m3 | 1001.57 | 998.04 kg/m3 | 993.81 | 1.044 | 0.83 mPa·s | 0.679 mPa·s | 0.568
m1 = 0.1008 | 1004.28 kg/m3 | 1001.61 | 998.1 kg/m3 | 993.86 | 1.044 | 0.83 mPa·s | 0.679 mPa·s | 0.568
m1 = 0.1992 | 1010 kg/m3 | 1007.23 | 1003.65 kg/m3 | 999.27 | 1.084 | 0.861 mPa·s | 0.703 mPa·s | 0.587
m1 = 0.2016 | 1010.1 kg/m3 and 1010.09 kg/m3 | 1007.34 | 1003.75 kg/m3 and 1003.74 kg/m3 | 999.43 | 1.085 | 0.861 mPa·s | 0.704 mPa·s and 0.703 mPa·s | 0.587
m1 = 0.2025 | 1010.19 kg/m3 | 1007.42 | 1003.85 kg/m3 | 999.49 | 1.085 | 0.862 mPa·s | 0.704 mPa·s | 0.589
m1 = 0.3 | 1015.66 kg/m3 and 1015.67 kg/m3 | 1012.81 | 1009.15 kg/m3 | 1004.74 | 1.127 | 0.894 mPa·s and 0.893 mPa·s | 0.729 mPa·s | 0.608
m1 = 0.3014 | 1015.74 kg/m3 | 1012.88 | 1009.21 kg/m3 | 1004.83 | 1.127 | 0.894 mPa·s | 0.729 mPa·s | 0.609
m1 = 0.3999 | 1021.12 kg/m3 and 1021.11 kg/m3 | 1018.15 | 1014.45 kg/m3 | 1010.01 | 1.169 | 0.926 mPa·s | 0.755 mPa·s | 0.629
m1 = 0.4001 | 1021.16 kg/m3 | 1018.19 | 1014.46 kg/m3 | 1010.02 | 1.172 | 0.926 mPa·s | 0.755 mPa·s | 0.629
